Source: patent US20110110923A1, “FISH ASSAY FOR EML4 AND ALK FUSION IN LUNG CANCER” (The Brigham and Women's Hospital, Inc., priority 2008, published 2011)
Entries after “also recorded” stand apart in the source; their conditions may differ.

Experiments:
[1] = system: PC-9 cell line (EGFR delE746_A750); assay: MTS cell growth assay, PC-9; assay type: cell-based, human; conditions: PC-9, 72 hours
Text: All experimental points were set up in six to twelve wells and all experiments were repeated at least three times. […] The curves were fitted using a non-linear regression model with a sigmoidal dose response.

[2] = system: H3122 cell line (EML4-ALK variant 1); assay: MTS cell growth assay, H3122; assay type: cell-based; conditions: Homo sapiens, NCI-H3122, read-out: IC50, growth inhibition, H3122, 72 hours
Method: (§1) Growth and inhibition of growth was assessed by methoxy-tetrazolium salt (MTS) assay. This assay, a colorimetric method for determining the number of viable cells, is based on the bioreduction of 3-(4,5-dimethylthiazol-2-yl)-5-(3-carboxymethoxyphenyl)-2-(4-sulfophenyl)-2H-tetrazolium (MTS) by cells to a formazan product that is soluble in cell culture medium, can be detected spectrophotometrically. NSCLC cells were exposed to treatment for 72 hours and the number of cells used per experiment determined empirically. All experimental points were set up in six to twelve wells and all experiments were repeated at least three times. […] The curves were fitted using a non-linear regression model with a sigmoidal dose response.

[3] = system: DFCI032 cell line (EML4-ALK variant 1); assay: MTS cell growth assay, DFCI032; assay type: cell-based; conditions: Homo sapiens, read-out: IC50, growth inhibition, DFCI032, 72 hours
Method: as §1

[4] = system: Akt, STAT3 and ERK 1/2 phosphorylation in PC-9; assay: Western blot of downstream signalling, PC-9; assay type: cell-based, human; conditions: PC-9, 0.1 μM, 6 hours
Method: (§2) The supernatant was used for subsequent procedures. […] Immunoblotting was performed according to the antibody manufacturers' recommendations. […] Total ERK1/2 and phospho-ERK1/2 (pT185/pY187) antibodies were purchased from Biosource International (Camarillo, Calif.).

H3122 cell line = assay: Apoptosis by FACS (sub G1) and Western blot for cleaved PARP, H3122; assay type: cell-based, human; conditions: H3122, 0.1 μM, 72 h
Method: as §2
Cells were collected and fixed in 40% ethanol for at least 1 hour (or until ready for the experiment) at 4° C. The fixed cells were treated with 0.5 mL of […] RNase A for 45 minutes at 37° C. and stained with […] propidium iodide (in 38 mM sodium citrate) for at least 30 minutes at room temperature in the dark. The stained cells were then analyzed for DNA content in a Becton Dickinson fluorescence-activated cell sorter using both ModFit (Verity Software House, Topsham, Me.) and CellQuest (Becton Dickinson, San Jose, Calif.) programs.

Karpas 299 cells = conditions: NPM-ALK positive lymphoma cells; cited from earlier work
[5] = system: H2228 cell line (EML4-ALK variant 3); assay: MTS cell growth assay, H2228; assay type: cell-based; conditions: Homo sapiens, NCI-H2228, read-out: IC50, growth inhibition, H2228, 72 hours
Method: as §1

[6] = in vivo; cited from earlier work
[7] = system: A549 cell line (K-Ras G12S); assay: MTS cell growth assay, A549; assay type: cell-based, human; conditions: A549, 72 hours
Method: as §1

[8] = system: Akt, STAT3 and ERK 1/2 phosphorylation in H3122; assay: Western blot of downstream signalling, H3122; assay type: cell-based, human; conditions: H3122, 0.1 μM, 6 hours
Method: as §2

[9] = system: Akt, STAT3 and ERK 1/2 phosphorylation in DFCI032; assay: Western blot of downstream signalling, DFCI032; assay type: cell-based, human; conditions: DFCI032, 0.1 μM, 6 hours
Method: as §2

[10] = system: other cell lines (H2228, DFCI032, PC-9, A549); assay: Growth arrest / apoptosis in the other NSCLC cell lines; assay type: cell-based, human; conditions: other cell lines than H3122
Method: as §1, §2
Cells were collected and fixed in 40% ethanol for at least 1 hour (or until ready for the experiment) at 4° C. […] The stained cells were then analyzed for DNA content in a Becton Dickinson fluorescence-activated cell sorter using both ModFit (Verity Software House, Topsham, Me.) and CellQuest (Becton Dickinson, San Jose, Calif.) programs.

[11] = system: Akt, STAT3 and ERK 1/2 phosphorylation in H2228; assay: Western blot of downstream signalling, H2228; assay type: cell-based, human; conditions: H2228, 0.1 μM, 6 hours
Method: as §2

[12] = system: EML4-ALK fusion transformed Ba/F3 models; conditions: original study describing the EML4-ALK fusion gene; cited from earlier work
ALK kinase = ALK kinase (Homo sapiens, UniProt Q9UM73); conditions: initial studies, Li et al.; read-out: IC50 (ALK inhibitors); cited from earlier work
Sequence of ALK kinase (Q9UM73 19-1620): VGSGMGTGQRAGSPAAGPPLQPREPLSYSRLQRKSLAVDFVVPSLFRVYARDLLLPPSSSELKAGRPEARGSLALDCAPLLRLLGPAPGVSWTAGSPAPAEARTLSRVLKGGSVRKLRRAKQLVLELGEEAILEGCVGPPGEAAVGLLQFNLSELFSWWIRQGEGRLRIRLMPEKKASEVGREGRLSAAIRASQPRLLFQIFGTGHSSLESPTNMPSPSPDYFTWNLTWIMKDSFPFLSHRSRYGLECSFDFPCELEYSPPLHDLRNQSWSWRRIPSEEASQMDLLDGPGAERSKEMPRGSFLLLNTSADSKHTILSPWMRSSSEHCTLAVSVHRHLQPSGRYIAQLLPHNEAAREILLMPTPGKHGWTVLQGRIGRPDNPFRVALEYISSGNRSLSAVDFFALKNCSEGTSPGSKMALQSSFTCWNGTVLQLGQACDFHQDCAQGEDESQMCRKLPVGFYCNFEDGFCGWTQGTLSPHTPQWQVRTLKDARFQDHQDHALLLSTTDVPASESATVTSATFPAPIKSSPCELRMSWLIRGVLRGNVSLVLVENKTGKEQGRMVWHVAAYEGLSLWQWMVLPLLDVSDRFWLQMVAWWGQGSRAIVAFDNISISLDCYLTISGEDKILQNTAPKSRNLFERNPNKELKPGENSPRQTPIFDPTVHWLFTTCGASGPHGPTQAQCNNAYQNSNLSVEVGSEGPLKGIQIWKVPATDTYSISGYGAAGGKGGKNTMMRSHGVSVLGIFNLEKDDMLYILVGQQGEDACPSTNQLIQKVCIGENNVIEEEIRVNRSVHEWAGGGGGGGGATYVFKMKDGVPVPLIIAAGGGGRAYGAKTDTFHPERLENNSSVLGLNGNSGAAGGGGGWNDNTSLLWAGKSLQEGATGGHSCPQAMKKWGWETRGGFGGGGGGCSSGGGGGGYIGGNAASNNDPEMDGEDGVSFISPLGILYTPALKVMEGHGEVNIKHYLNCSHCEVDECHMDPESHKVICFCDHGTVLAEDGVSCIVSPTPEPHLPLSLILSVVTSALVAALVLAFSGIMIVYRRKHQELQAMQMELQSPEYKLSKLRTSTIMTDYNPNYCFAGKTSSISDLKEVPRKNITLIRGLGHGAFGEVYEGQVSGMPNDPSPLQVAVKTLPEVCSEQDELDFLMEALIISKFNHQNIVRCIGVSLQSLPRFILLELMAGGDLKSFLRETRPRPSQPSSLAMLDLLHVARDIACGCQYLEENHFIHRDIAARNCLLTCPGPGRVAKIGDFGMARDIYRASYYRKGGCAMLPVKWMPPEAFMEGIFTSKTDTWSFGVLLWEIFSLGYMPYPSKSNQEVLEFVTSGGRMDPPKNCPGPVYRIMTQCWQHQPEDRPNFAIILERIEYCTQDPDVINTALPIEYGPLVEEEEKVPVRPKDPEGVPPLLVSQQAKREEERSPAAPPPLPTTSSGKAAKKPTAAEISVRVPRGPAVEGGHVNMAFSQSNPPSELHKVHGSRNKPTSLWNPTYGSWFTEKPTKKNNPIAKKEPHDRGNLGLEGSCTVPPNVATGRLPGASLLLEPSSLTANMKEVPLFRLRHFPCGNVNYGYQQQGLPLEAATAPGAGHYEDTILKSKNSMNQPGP

Row | Structure (SMILES) | growth: resistance to the inhibitor [1] | IC50 [2] [nM] | IC50 [3] [µM] | Akt, STAT3 and ERK 1/2 phosphorylation [4] | 89 kDa cleaved PARP product (Western blot) (H3122 cell line) | apoptosis (FACS sub G1 fraction / cleaved PARP) (H3122 cell line) | apoptosis (FACS sub G1 fraction / cleaved PARP) (H3122 cell line; listed as TAE-684) | IC50 (Karpas 299 cells) [nM] | IC50 [5] [µM] | bioavailability [6] | growth: resistance to the inhibitor [7] | Akt, STAT3 and ERK 1/2 phosphorylation [8] | Akt, STAT3 and ERK 1/2 phosphorylation [9] | growth arrest or apoptosis [10] | Akt, STAT3 and ERK 1/2 phosphorylation [11] | growth inhibition [12] | IC50 (ALK kinase) [µM]
1 | COc1cc(N2CCC(N3CCN(C)CC3)CC2)ccc1Nc1ncc(Cl)c(Nc2ccccc2S(=O)(=O)C(C)C)n1 [NVP-TAE684] | resistant | ~10 | 1 to 10 | unchanged | observed | significant apoptosis | Significant apoptosis | 2 to 5 | 1 to 10 | good | resistant | substantial inhibition; also recorded: decrease | unchanged; also recorded: no inhibition | No growth arrest or apoptosis | some but not complete inhibition; also recorded: only partial inhibition; also recorded: decrease |  | 
2 | C[C@@H](Oc1cc(-c2cnn(C3CCNCC3)c2)cnc1N)c1c(Cl)ccc(F)c1Cl [PF-02341066] |  |  |  |  |  |  |  | 26 |  | good |  |  |  |  |  |  | 
3 | COc1cc2ncnc(Nc3ccc(O)c(Br)c3)c2cc1OC [WHI-P154] |  |  |  |  |  |  |  |  |  |  |  |  |  |  |  | growth inhibition | ~5
